Experimental data published in patent US20110060267A1 (priority 2008, published 2011).

Columns and labels:
[1] = buffer; cited from earlier work
post-LASIK ectasia = experiment: Treatment for post-LASIK ectasia with photoinitiator and UV irradiation; format: in vivo; conditions: 0.35M sodium persulfate drops; one 10-second UV burst 1000 mW
Protocol: A subject is diagnosed with ectasia following a LASIK procedure. […] Mechanical stability is measured using the Reichert Ocular Response Analyzer. CH values correlate with reduced mechanical stability. Pachymetry of the cornea measures a corneal stromal thickness of 300 microns or less in areas of the cornea, indicative of post-LASIK ectasia. The subject is chosen to receive treatment using short wavelength ultraviolet irradiation following administration of a low concentration photoinitiator. Drops of 0.35M sodium persulfate in 0.02M sodium phosphate buffer at a pH of 7.6-8.0 are administered to the cornea in an applicator designed to limit exposure to the location of keratoconus on the corneal surface. The cornea is then exposed to one 10-second burst of ultraviolet irradiation at an intensity of 1000 mW.

[2] = test system: cornea following orthokeratology lens wear; experiment: Corneal stabilization following orthokeratology lens wear; format: in vivo; conditions: treated eye compared to untreated control eye; 0.35M sodium persulfate; one 10-second UV burst 1000 mW
Excerpt: Subjects are fitted with lenses for orthokeratology. The subjects have one (1) eye treated by exposure to ultraviolet irradiation following pretreatment with a photoinitiator. The contralateral eye is an untreated control. Selection of the eye to be treated is random. Examinations at the initial visit and at each follow-up include unaided visual acuity, slit-lamp examination, refractive error, corneal topography, and corneal hysteresis using the Reichert Ocular Response Analyzer. CH values correlate with reduced mechanical stability. The subject is chosen to receive treatment using short wavelength ultraviolet irradiation following administration of a low concentration photoinitiator. Drops of 0.35M sodium persulfate in 0.02M sodium phosphate buffer at a pH of 7.6-8.0 are administered to the cornea in an applicator designed to limit exposure to the corneal surface. The cornea is then exposed to one 10-second burst of ultraviolet irradiation at an intensity of 1000 mW.

porcine cornea = experiment: Stress-strain analysis of corneal buttons after photoinitiator and UV exposure
keratoconus [3] = experiment: Treatment of keratoconus with photoinitiator and UV irradiation; format: in vivo; conditions: 0.35M sodium persulfate drops; one 10-second UV burst 1000 mW
Protocol: A subject is diagnosed with keratoconus in both eyes. They are not able to wear contact lenses. […] Corneal hysteresis measurements are made using the Reichert Ocular Response Analyzer. Corneal hysteresis (CH) is at least 3 numbers less than the normal population. Corneal topography is also conducted to identify the location of keratoconus. The subject is chosen to receive treatment using short wavelength ultraviolet irradiation following administration of a low concentration photoinitiator. Drops of 0.35M sodium persulfate in 0.02M sodium phosphate buffer at a pH of 7.6-8.0 are administered to the cornea in an applicator designed to limit exposure to the location of keratoconus on the corneal surface. The cornea is then exposed to one 10-second burst of ultraviolet irradiation at an intensity of 1000 mW.

cornea = conditions: riboflavin drops, UVA 30 minutes, ablated cornea; cited from earlier work
keratoconus [4] = conditions: 0.1% riboflavin drops, UVA 3 mW/cm 30 minutes, deepithelialized cornea; cited from earlier work

## CC(C#N)(CCC(=O)O)N=NC(C)(C#N)CCC(=O)O (stereo not drawn) [4,4′-Azobis(4-cyanovaleric acid)]
[1]
  10th Half-life ° C. (Solvent): 69 (water) ° C.

## O=S(=O)([O-])OOS(=O)(=O)[O-].[Na+].[Na+] [sodium persulfate]
post-LASIK ectasia
  corneal hysteresis (CH): two-fold increase
  vision: significant improvement
[2]
  regression of visual acuity: minimal to no regression
Porcine cornea; 0.35M sodium persulfate 1 min, 10-second bursts UV 1000 mW, 310-400 nm, acetic anhydride softened cornea
  low modulus following exposure to ultraviolet irradiation: increased
Porcine cornea; four 10-second UV exposures
  low modulus: nearly equal to untreated control cornea
Porcine cornea; single 10-second UV exposure, FIG. 1
  strengthening (low modulus): maximum
Porcine cornea; subsequent UV exposures, FIG. 1
  low modulus: reduced the increase in low modulus
Keratoconus [3]
  corneal hysteresis (CH): increase
  vision: significant improvement

## Cc1cc2nc3c(=O)[nH]c(=O)nc-3n(C[C@H](O)[C@H](O)[C@H](O)CO)c2cc1C [riboflavin]
cornea
  corneal biomechanical stiffness: significant increase
Keratoconus [4]
  clinical treatment of keratoconus: successful
